The record followed here is ChEMBL document CHEMBL4043145, “Pyridine-pyrimidine amides that prevent HGF-induced epithelial scattering by two distinct mechanisms” (Bioorg Med Chem Lett, 2017).

A short description of test [1]: (§1) Inhibition of bovine brain tubulin polymerization. Further details: species or system Bos taurus.
Test [2] is filed under the species Bos taurus. Described as §1.
A short description of test [3]: Binding affinity to tubulin (unknown origin) by isothermal titration calorimetric analysis. On the set-up: species or system Homo sapiens.
The species entered for test [4] is Bos taurus. Put plainly: Inhibition of colchicine binding to bovine brain tubulin up to 25 uM by fluorescence based assay relative to control.
The species entered for test [5] is Homo sapiens. Description: Binding affinity to tubulin (unknown origin) by CD spectroscopic method.
Test [6] deals with MCF7. Description: Antiproliferative activity against human MCF7 cells at 10 uM relative to control. The format is functional, cell-based.
The test system of test [7] is MDCK-II. Description: Antimigratory activity against MDCK2 cells assessed as inhibition of HGF-induced cell scattering pretreated for 18 hrs followed by HGF addition measured after 20 to 24 hrs by crystal violet staining-based assay. The test is classed as functional. Conditions: Canis lupus familiaris.
Test [8] relates to MDA-MB-468. Description: Antiproliferative activity against human MDA-MB-468 cells at 10 uM relative to control. The format is functional.
In test [9] the test system is MDCK-II. Put plainly: Antimigratory activity against MDCK2 cells assessed as inhibition of HGF-induced cell scattering at 1 uM pretreated for 18 hrs followed by HGF addition measured after 20 to 24 hrs by crystal violet staining-based assay relative to control. The test is classed as functional. As to conditions: Canis lupus familiaris.

Activity calls are given as the source filed them. The calls are words filed in the database; no cut-off is given here.

In the case of `Cc1ncc(C(=O)Nc2ccc(-c3cccc(S(=O)(=O)C4CC4)c3)cn2)cn1`, the IC50 in test [1] was 240 nM. Moreover, the inhibition result in test [2] is “Dose-dependent effect”; in test [4], 70%. Besides, binding in test [3] was put at a Kd of 190 nM. For the same molecule, the outcome in test [5] was Active.

For the molecule `Cc1nc(NC(=O)c2cccc([N+](=O)[O-])c2)ccc1I`, the results for the inhibition at 10 µM in test [6] and in test [8] were 84% and 73%, respectively. Moreover, in test [7], the 50% effective concentration (EC50) stood at 3000 nM. In [9], the inhibition at 1 µM lay within 71 to 95.9%.
